For assay [1], the system named is GI-ARS model (partial shielding irradiation). Briefly: Clinical signs and survival in rodent model of gastrointestinal acute radiation syndrome (GI-ARS). The assay is classed as in vivo, C57BL/6J mice. How it is done:
The subjects for the two studies outlined here were (A) Study 1: 20 male C57BL/6J mice (8 weeks of age; 23-28 g) and (B) Study 2: 16 male C57BL/6J mice (8 weeks of age; 23-28 g). Following arrival, all animals were subjected to a health assessment and evaluation was performed in accordance with the standard operating procedures and by technical staff working under the supervision of the clinical veterinarian. An acclimation period of at least 11 days was allowed between receipt of the animals and irradiation to accustom the animals to the laboratory environment.
A solution formulation of 25HC3S sodium salt and its respective vehicle was used for the study. The Vehicle was a solution of 4% (w/v) hydroxypropyl betadex in 75% (v/v) of 0.9% (w/v) sodium chloride and 25% (v/v) sterile water. 25HC3S sodium salt was pre-dissolved into the Vehicle solution to result in a drug concentration of 5 mg/mL. The 25HC3S solution was ready-to-use at the start of dosing. In Study 1, the vehicle was stored at 2-8° C. whereas the 25HC3S solution was stored at room temperature prior and throughout the study duration; in Study 2, both vehicle and 25HC3S solutions were stored at 2-8° C.
Partial shielding irradiation (PSI) exposure at a high radiation dose (>10Gy) is an established approach to mimic GI-ARS in mice. Animals were exposed to whole-body irradiation with partial shielding (Day 0) in a custom designed restrainer where their left pelvic limb was extended and maintained in position with an elastic band. The left pelvic limb was shielded with a cerrobend structure. Animals received a whole body irradiation dose with partial shielding of 15.78 Gy (LD50/22) for Study 1 whereas mice were exposed to 15.16 Gy (LD25/22) in Study 2. The dose rate of the ^60Co gamma source was fixed at approximately 60 cGy per minute. The in-life portion of both the studies after PSI was 22 days.
Study 1: Mice (N=20/group) were administered once daily with 25HC3S (or vehicle) for 7 consecutive days starting on the day following irradiation (Day 1) by subcutaneous injection between scapulas using a 27G needle attached to a syringe. The dose volume was 10 mL/kg for all dose routes and the dose was adjusted based on the most recent body weight. Study 2: Mice (N=16/group) were administered with 25HC3S (or vehicle) for a total of […]. Animals were given drug (or vehicle) once on the day following irradiation (Day 1) and once on Day 4 by subcutaneous injection between scapulas using a 27G needle attached to a syringe. The dose volume was 10 mL/kg for all dose routes and the dose was adjusted based on the most recent body weight.
Mortality checks were recorded concomitantly with the cage-side observations, during all phases of the study. Mortality checks for all animals were also recorded at least once during the night from Day 5 through Day 8. Clinical signs (ill health, behavioral changes, fur color/consistency changes etc.) were also recorded on all surviving animals twice daily throughout observation period (described in Table 10). Additional clinical observations were performed when deemed necessary. All observations were recorded as cage side clinical signs or detailed clinical examination when possible. A detailed clinical examination was performed on each animal at least as follows: prior to animal assignment, one day prior to irradiation (Day −1) then every 3 days throughout the observation period. […]

Assay [2] concerns CLP surgery-induced sepsis model. The assay can be described thus: Survival in rodent model of surgically-induced sepsis (cecum ligation puncture). The assay is classed as in vivo, CD rats. The note with it: 30 mg/kg sc within 30 minutes after surgery, end of study (3 days or 72 hours), N=5. How it is done: The subjects for the study were 10 male CD rats (12-13 weeks of age, 400-450 g).
A solution formulation of 25HC3S sodium salt and its respective vehicle was used for the study. The Vehicle was a solution of 40 mg/mL hydroxypropyl betadex with 10 mM sodium phosphate buffer in 70% (v/v) of 0.9% (w/v) sodium chloride and 30% (v/v) of sterile water. 25HC3S sodium salt was pre-dissolved into the Vehicle solution to result in a drug concentration of 5 mg/mL. The 25HC3S solution was ready-to-use at the start of dosing. Both the vehicle and 25HC3S solution were stored at room temperature. Before dosing, the 25HC3S solution was confirmed to be clear and void of any precipitation. Otherwise, if precipitation was observed, the solution was to be sonicated at room temperature for 10 minutes to dissolve particulates.
The CLP procedure is an established and widely-used approach to investigate the progression and characteristics of clinical sepsis. On the day of surgery, animals were weighed and monitored for their baseline temperature. Animals were anesthetized with isoflurane and depth of anesthesia was checked by toe-pinching. Dipyrone (an analgesic) was given subcutaneously prior to surgery. […]
Rats were monitored for survival for 3 days after CLP surgery and 25HC3S treatment. […]
Animals were monitored for mortality, “clinical signs” and pain level. […]

With `C[C@H](CCCC(C)(C)O)[C@H]1CC[C@H]2[C@@H]3CC=C4C[C@@H](OS(=O)(=O)[O-])CC[C@]4(C)[C@H]3CC[C@]12C.[Na+]` [25HC3S, 5-cholesten-3, 25-diol, 3-sulfate], the Survival in assay [1] (Study 1, 15.78 Gy, by Day 7) worked out at 45%; in assay [1] (Study 2, 15.16 Gy, sc doses on Day 1 and Day 4, 50 mg/kg/dose), 81.25%. In addition, the “mortality, treatment vs vehicle group” value in assay [1] (Study 1, 15.78 Gy, sc once daily for 7 days from Day 1) is on record as “not significant”. Also, the “average number of clinical signs/mice vs vehicle-treated group” value in assay [1] (Study 1, Days 5-22, animals that survived the entire in-life portion) is recorded as “statistically lower”. Moreover, the “Survival improved by (vs vehicle)” value in assay [1] (Study 2, 15.16 Gy) came out at 18.75%. Further, the “rats that had died” value in assay [2] was determined as 60%.

Values taken from patent US20230047788A1, “COMPOSITIONS COMPRISING 5-CHOLESTEN-3, 25-DIOL, 3-SULFATE (25HC3S) OR PHARMACEUTICALLY ACCEPTABLE SALT THEREOF AND AT LEAST ONE CYCLIC OLIGOSACCHARIDE” (Virginia Commonwealth University, priority 2016, published 2023).
